pIC50: −log10 of the molar value. Where two headings read alike, the source gives them in different places.

In test [1] the test system is PC3 cells. Kind of test: PC3 growth inhibition (Cell-titer glo, 72 hours). In kind it is cell-based. The conditions noted are these: Homo sapiens, read-out: Percent Inhibition (PC3 growth inhibition); for inhibition at 1.667 µM: compound concentration 1.667 μM. The gist of the method:
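Compounds in AIM serum-free medium were applied for 72 h at 37 °C, 5% CO2 to PC3 cells plated overnight from RPMI1640 culture. Luminescence after 10 min CellTiter-Glo, normalised to DMSO, gave % viability at 1 μM or 1.667 μM, or GI50/LD50.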

For test [2], the target named is hNAMPT protein (Homo sapiens (Human), UniProt P43490). Kind of test: NAMPT enzyme assay (TR-FRET/HTRF, BodiPY ligand, anti 6His-Tb). In kind it is binding. The conditions noted are these: for inhibition at 1 µM: read-out: Percent Inhibition. The gist of the method:
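Compound or DMSO was incubated for 1 h at room temperature, protected from light, with BodiPY ligand and hNAMPT labelled by terbium anti-6His antibody. The 520 nm to 486 nm emission ratio after 320 nm excitation gave inhibition versus vehicle, from which concentration-response curves yielded IC50.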
In general terms: In TR-FRET formats the signal depends on donor and acceptor labels being close together.

[3] abbreviates: PC-3, compound concentration 1 μM, PC3 cells, 72 hours, Cell-titer glo.
The mark [4] stands for this setting: NAMPT IC50 range class, read-out: IC50.
The mark [5] stands for this setting: PC-3, PC3 cells, 72 hours, Cell-titer glo.

Chain of hNAMPT protein (P43490 whole entry): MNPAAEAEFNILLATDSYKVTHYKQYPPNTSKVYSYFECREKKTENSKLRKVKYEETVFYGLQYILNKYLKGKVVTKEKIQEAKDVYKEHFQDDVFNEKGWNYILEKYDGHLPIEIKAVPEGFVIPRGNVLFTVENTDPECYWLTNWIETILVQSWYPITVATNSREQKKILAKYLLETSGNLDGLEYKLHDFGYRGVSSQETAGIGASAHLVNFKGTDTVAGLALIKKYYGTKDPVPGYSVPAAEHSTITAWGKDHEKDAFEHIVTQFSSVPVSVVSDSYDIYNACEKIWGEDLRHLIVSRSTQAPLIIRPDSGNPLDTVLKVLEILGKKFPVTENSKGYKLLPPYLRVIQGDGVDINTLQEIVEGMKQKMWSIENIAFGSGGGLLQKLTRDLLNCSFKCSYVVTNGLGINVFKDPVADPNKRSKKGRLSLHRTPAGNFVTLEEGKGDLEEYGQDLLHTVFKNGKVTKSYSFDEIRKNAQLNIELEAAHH

As for `Cn1ccc(-c2nc3cc(C(=O)NCCCn4ccnc4)ccc3nc2-c2ccccc2)n1` [Compound I-215, N-[3-(1H-imidazol-1-yl)propyl]-3-(1-methyl-1H-pyrazol-3-yl)-2-phenylquinoxaline-6-carboxamide], the inhibition at 1 µM was determined as 19% in test [1] (setting [3]) and 15% in test [2] (compound concentration 1 μM). Moreover, the negative logarithm of the IC50 (pIC50) in test [2] (setting [4]) is 5.00 to 5.70.

With `O=C(NCCCc1ncc[nH]1)c1ccc2nc(OC3CCCCC3)c(-c3ccc(Cl)cc3)nc2c1` [Compound I-216, 3-(4-chlorophenyl)-2-(cyclohexyloxy)-N-[3-(1H-imidazol-2-yl)propyl]quinoxaline-6-carboxamide], the inhibition at 1.667 µM in test [1] (setting [5]) amounted to 3%. Besides, the pIC50 in test [2] (setting [4]) was over 7.00. Moreover, in test [2] (compound concentration 1 μM), the inhibition at 1 µM stood at 91%.

With `CC(C)(C)OC(=O)NCc1ccccc1-c1nc2cc(C(=O)NCCCn3ccnc3)ccc2nc1-c1ccccc1` [Compound I-217, tert-butyl[2-(7-{[3-(1H-imidazol-1-yl)propyl]carbamoyl}-3-phenylquinoxalin-2-yl)benzyl]carbamate], the inhibition at 1 µM in test [1] (setting [3]) amounted to 95%; in test [2] (compound concentration 1 μM), 26%. Moreover, the pIC50 in test [2] (setting [4]) is 5.00 to 5.70.

For the molecule `COc1cccc(-c2nc3cc(C(=O)NCCCn4ccnc4)ccc3nc2-c2ccccc2)c1` [Compound I-218, N-[3-(1H-imidazol-1-yl)propyl]-3-(3-methoxyphenyl)-2-phenylquinoxaline-6-carboxamide], the inhibition at 1 µM in test [1] (setting [3]) amounted to 0%; in test [2] (compound concentration 1 μM) it was 100%. Further, the negative-log IC50 (pIC50) in test [2] (setting [4]) was over 7.00.

In the case of `N#Cc1cccc(-c2nc3ccc(C(=O)NCCCn4ccnc4)cc3nc2-c2ccccc2)c1` [Compound I-219, 2-(3-cyanophenyl)-N-[3-(1H-imidazol-1-yl)propyl]-3-phenylquinoxaline-6-carboxamide], the inhibition at 1 µM in test [1] (setting [3]) is -7%; in test [2] (compound concentration 1 μM), 74%. The pIC50 in test [2] (setting [4]) was 6.30 to 7.00.

As for `O=C(NCc1ccc2[nH]ncc2c1)c1ccc2nc(N3CCCCC3)c(-c3ccc(F)cc3)nc2c1` [Compound I-220, 3-(4-Fluorophenyl)-N-(1H-indazol-5-ylmethyl)-2-(piperidin-1-yl)quinoxaline-6-carboxamide], the inhibition at 1.667 µM in test [1] (setting [5]) stood at 4%. For the same molecule, in test [2] (setting [4]), the negative-log IC50 (pIC50) was 6.30 to 7.00. The inhibition at 1 µM in test [2] is 68%.

As to `O=C(NCCOc1cccnc1)c1ccc2nc(N3CCC(N4CCOCC4)CC3)c(-c3ccc(F)cc3)nc2c1` [Compound I-221, 3-(4-fluorophenyl)-2-[4-(morpholin-4-yl)piperidin-1-yl]-N-[2-(pyridin-3-yloxy)ethyl]quinoxaline-6-carboxamide], the inhibition at 1.667 µM in test [1] (setting [5]) worked out at 2%. Further, the negative logarithm of the IC50 (pIC50) in test [2] (setting [4]) was over 7.00. Moreover, the inhibition at 1 µM in test [2] (compound concentration 1 μM) is over 99%.

Regarding `CC(C)Oc1nc2ccc(C(=O)NCCCc3ncc[nH]3)cc2nc1-c1ccc(Cl)cc1` [Compound I-222, 3-(4-chlorophenyl)-N-[3-(1H-imidazol-2-yl)propyl]-2-isopropoxyquinoxaline-6-carboxamide], the inhibition at 1.667 µM in test [1] (setting [5]) amounted to 12%. Besides, in test [2] (setting [4]), the pIC50 is over 7.00. In test [2] (compound concentration 1 μM), the inhibition at 1 µM was 92%.

Take `CC(=O)Nc1ccc(-c2nc3cc(C(=O)NCCCn4ccnc4)ccc3nc2-c2ccccc2)cc1` [Compound I-223, 3-(4-acetamidophenyl)-N-[3-(1H-imidazol-1-yl)propyl]-2-phenylquinoxaline-6-carboxamide]: the inhibition at 1 µM worked out at 103% in test [1] (setting [3]) and 10% in test [2] (compound concentration 1 μM). Also, in test [2] (setting [4]), the pIC50 was 5.00 to 5.70.

In the case of `O=C(NCCCn1ccnc1)c1ccc2nc(-c3ccccc3)c(-c3cccc(Cl)c3)nc2c1` [Compound I-224, 3-(3-chlorophenyl)-N-[3-(1H-imidazol-1-yl)propyl]-2-phenylquinoxaline-6-carboxamide], the inhibition at 1 µM in test [1] (setting [3]) stood at 1%; in test [2] (compound concentration 1 μM), 74%. Further, the pIC50 in test [2] (setting [4]) was 6.30 to 7.00.

In the case of `O=C(c1ccc2nc(-c3ccc(F)cc3)c(-c3ccc(F)cc3)nc2c1)N1CCc2[nH]ncc2C1` [Compound I-225, [2,3-bis(4-fluorophenyl)quinoxalin-6-yl](1,4,6,7-tetrahydro-5H-pyrazolo[4,3-c]pyridin-5-yl)methanone], the inhibition at 1 µM is 91% in test [1] (setting [3]) and 14% in test [2] (compound concentration 1 μM). The pIC50 in test [2] (setting [4]) is 5.00 to 5.70.

Regarding `COC1CCN(c2nc3ccc(C(=O)NCCCn4ccnc4)cc3nc2-c2ccccc2)C1` (stereo not drawn) [Compound I-226, N-[3-(1H-imidazol-1-yl)propyl]-2-(3-methoxypyrrolidin-1-yl)-3-phenylquinoxaline-6-carboxamide], the inhibition at 1 µM was -7% in test [1] (setting [3]) and 70% in test [2] (compound concentration 1 μM). Also, the pIC50 in test [2] (setting [4]) is 6.30 to 7.00.

For `O=C(NCCCn1ccnc1)c1ccc2nc(-c3ccccc3)c(-c3ccc4cc[nH]c4c3)nc2c1` [Compound I-227, N-[3-(1H-imidazol-1-yl)propyl]-3-(1H-indol-6-yl)-2-phenylquinoxaline-6-carboxamide], the inhibition at 1 µM in test [1] (setting [3]) was 1%; in test [2] (compound concentration 1 μM), 68%. For the same molecule, in test [2] (setting [4]), the negative logarithm of the IC50 (pIC50) was 6.00 to 6.30.

Turning to `CCOc1cccc(-c2nc3ccc(C(=O)NCCCn4ccnc4)cc3nc2-c2ccccc2)c1` [Compound I-228, 2-(3-ethoxyphenyl)-N-[3-(1H-imidazol-1-yl)propyl]-3-phenylquinoxaline-6-carboxamide], the inhibition at 1 µM in test [1] (setting [3]) is -8%; in test [2] (compound concentration 1 μM), 80%. Further, in test [2] (setting [4]), the pIC50 was 6.30 to 7.00.

As for `O=C(NCCCc1ccncc1)c1ccc2nc(-c3ccc(F)cc3)c(-c3ccc(F)cc3)nc2c1` [Compound I-229, 2,3-bis(4-fluorophenyl)-N-[3-(pyridin-4-yl)propyl]quinoxaline-6-carboxamide], the values for the inhibition at 1 µM in test [1] (setting [3]) and in test [2] (compound concentration 1 μM) were 95% and 73%, respectively. Further, the negative-log IC50 (pIC50) in test [2] (setting [4]) was 6.30 to 7.00.

In the case of `O=C(NCCCn1ccnc1)c1ccc2nc(C3=CCCC3)c(-c3ccccc3)nc2c1` [Compound I-230, 2-(cyclopent-1-en-1-yl)-N-[3-(1H-imidazol-1-yl)propyl]-3-phenylquinoxaline-6-carboxamide], the inhibition at 1 µM in test [1] (setting [3]) was -7%; in test [2] (compound concentration 1 μM), 62%. The pIC50 in test [2] (setting [4]) is 6.00 to 6.30.

Take `CC(C)(C)OC(=O)NCC1(O)CCN(C2CCN(c3nc4ccc(C(=O)NCCCn5ccnc5)cc4nc3-c3ccccc3)CC2)CC1` [Compound I-231, tert-Butyl {[4-hydroxy-1′-(6-{[3-(1H-imidazol-1-yl)propyl]carbamoyl}-3-phenylquinoxalin-2-yl)-1,4′-bipiperidin-4-yl]methyl}carbamate]: the inhibition at 1 µM in test [1] (setting [3]) is -2%; in test [2] (compound concentration 1 μM) it was 95%. For the same molecule, the pIC50 in test [2] (setting [4]) was over 7.00.

On to `O=C(NCCCc1ncc[nH]1)c1ccc2nc(N3CCCCC3)c(-c3ccc(F)cc3)nc2c1` [Compound I-232, 3-(4-fluorophenyl)-N-[3-(1H-imidazol-2-yl)propyl]-2-(piperidin-1-yl)quinoxaline-6-carboxamide], for which, in test [1] (setting [5]), the inhibition at 1.667 µM was 2%. In addition, in test [2] (setting [4]), the negative logarithm of the IC50 (pIC50) was over 7.00. For the same molecule, the inhibition at 1 µM in test [2] (compound concentration 1 μM) was over 99%.

Take `O=C(NCCCn1ccnc1)c1ccc2nc(Nc3ccccc3)c(-c3ccccc3)nc2c1` [Compound I-233, 2-Anilino-N-[3-(1H-imidazol-1-yl)propyl]-3-phenylquinoxaline-6-carboxamide]: in test [1] (PC-3, 72 h), the inhibition at 1 µM was -8%. Moreover, in test [2], the pIC50 was 5.00 to 5.70 and the inhibition at 1 µM is 43%.

Consider `Cn1ccnc1CCCNC(=O)c1ccc2nc(-c3ccc(F)cc3)c(-c3ccc(F)cc3)nc2c1` [Compound I-234, 2,3-bis(4-fluorophenyl)-N-[3-(1-methyl-1H-imidazol-2-yl)propyl]quinoxaline-6-carboxamide], for which the inhibition at 1 µM in test [1] (setting [3]) turned out to be 41%; in test [2] (compound concentration 1 μM) it was 100%. Further, in test [2] (setting [4]), the negative logarithm of the IC50 (pIC50) is over 7.00.

Turning to `NC(=O)c1cccc(-c2nc3ccc(C(=O)NCCCn4ccnc4)cc3nc2-c2ccccc2)c1` [Compound I-235, 2-(3-carbamoylphenyl)-N-[3-(1H-imidazol-1-yl)propyl]-3-phenylquinoxaline-6-carboxamide], the inhibition at 1 µM in test [1] (setting [3]) is -8%; in test [2] (compound concentration 1 μM), 79%. Moreover, the negative logarithm of the IC50 (pIC50) in test [2] (setting [4]) was 6.30 to 7.00.

Consider `O=C(NCCCn1ccnc1)c1ccc2nc(-c3ccccc3)c(-c3cccs3)nc2c1` [Compound I-236, N-[3-(1H-imidazol-1-yl)propyl]-2-phenyl-3-(2-thienyl)quinoxaline-6-carboxamide], for which the inhibition at 1 µM came out at 1% in test [1] (setting [3]) and 99% in test [2] (compound concentration 1 μM). In addition, in test [2] (setting [4]), the pIC50 is over 7.00.

As for `O=C(NCCn1cncn1)c1ccc2nc(-c3ccc(F)cc3)c(-c3ccc(F)cc3)nc2c1` [Compound I-237, 2,3-bis(4-fluorophenyl)-N-[2-(1H-1,2,4-triazol-1-yl)ethyl]quinoxaline-6-carboxamide], the results for the inhibition at 1 µM in test [1] (setting [3]) and in test [2] (compound concentration 1 μM) were 96% and 21%, respectively. Also, the negative logarithm of the IC50 (pIC50) in test [2] (setting [4]) is 5.00 to 5.70.

For the molecule `O=C(NCCc1cn2c(n1)SCC2)c1ccc2nc(-c3ccc(F)cc3)c(-c3ccc(F)cc3)nc2c1` [Compound I-238, N-[2-(2,3-dihydroimidazo[2,1-b][1,3]thiazol-6-yl)ethyl]-2,3-bis(4-fluorophenyl)quinoxaline-6-carboxamide], the inhibition at 1 µM worked out at 96% in test [1] (setting [3]) and 19% in test [2] (compound concentration 1 μM). Moreover, the pIC50 in test [2] (setting [4]) is 5.00 to 5.70.

As usually defined, the inhibition is the change of the read-out against control, counted positive when it falls. In general, pIC50 refers to −log10 of the IC50, conventionally taken in molar units.

Values taken from patent US10144742B2 (Millennium Pharmaceuticals, Inc., priority 2014, dated 2018).
